Patent US20240400584A1, “COMPOUNDS AND METHODS FOR MODULATING SPLICING” (REMIX THERAPEUTICS INC., priority 2021, published 2024)
pIC50: −log10 of the molar value.

Tests used:
[1] = tested on: HiBit-tagged MYB in K562 cells; assay: HiBiT protein abundance assay, MYB; assay type: cell-based, human; conditions: HiBiT-modified K562 cells, 24 hours, luminescence
Protocol: (§1) Compounds described herein were used to screen for effects on quantitative protein abundance using a HiBit assay system (Promega). Quantitative protein abundance was determined by measuring the protein levels of HiBit-tagged protein targets expressed in cell culture via luminescence using the Nano-Glo HiBiT Lytic Detection System, which uses a split complementation assay format to reconstitute NanoBiT enzyme to generate a luminescent signal. A protein abundance assay was developed such that endogenous protein targets could be modified with the HiBiT peptide tag and their abundance could be assessed after compound treatment. Briefly, K562 cell lines containing a HiBiT-modification were treated with various compounds described herein (e.g., compounds of Formulas (I)). After treatment for 24 hours, the protein abundance of a specific target was determined by measuring luminescence.
(§2) Cells were maintained in IMDM with 10% FBS. Before the assay, cells were diluted with […] growth media (IMDM+[…] media) and were seeded in a 384-well plate at a density of 10000 cells/well (for each cell line listed in Table 8). Each compound was prepared as a 10-point 3-fold serial dilution in DMSO with the top dose at a final concentration of 10 μM in the well. Unmodified K562 cells were added at the previously specified density with DMSO to serve as an assay baseline and positive control (PC) and DMSO only with the respective modified cell lines was added to the negative control (NC) columns. Final DMSO concentration was kept at or below 0.25% o. Treated cell plates were placed in an incubator at 37° C. with […] for 24 hours. After 24 hours, 25 μL of Complete HiBit Lytic reagent was added to each well at room temperature (e.g. one plate requiring 10 mL Lytic Buffer, 100 μL LgBiT Protein, 200 μL Lytic Substrate), shaken for 5 minutes at 600 RPM, then left to sit for 10 minutes for signal to stabilize before reading on a Spark Cyto plate reader (Tecan) with a 500 ms measurement time.
(§3) To determine compound effects on protein abundance of each target in Table 9, the percent response for each respective cell line was calculated at each compound concentration as follows:
(§4) For the normalized response at each concentration, a four-parameter logistical regression was fit to the data and the response was interpolated at the […] to determine a concentration for protein abundance at 50% o (IC50) the untreated control.

[2] = tested on: HiBit-tagged Target C in K562 cells; assay: HiBiT protein abundance assay, Target C; assay type: cell-based, human; conditions: HiBiT-modified K562 cells, 24 hours, luminescence
Protocol: as §1, §2, §3, §4

[3] = tested on: HTT; assay: Gene panel canonical junction qPCR assay, HTT CJ mRNA (Table 7); assay type: cell-based, human; conditions: Homo sapiens, read-out: HTT CJ mRNA decrease IC50
How it was run: (§5)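 Treated K562 or A673 cells; measured CJ mRNA by cDNA synthesis and qPCR, 2^(−ΔΔCt) against housekeeper and DMSO. IC50 marks half-maximal CJ decrease.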

[4] = tested on: SMN2; assay: Gene panel canonical junction qPCR assay, SMN2 CJ mRNA (Table 7); assay type: cell-based; conditions: Homo sapiens, read-out: SMN2 CJ mRNA decrease IC50
How it was run: as §5

| Structure (SMILES) | pIC50 [1] | pIC50 [2] | pIC50 [3] | pIC50 [4] |
| --- | --- | --- | --- | --- |
| CN(c1ccc2c(n1)OCc1cc(-c3ccn(C)c(=O)c3)ccc1-2)[C@@H]1C[C@H]2CC[C@@H](C1)N2 [Compound 153] | > 7.00 | > 7.00 | > 7.00 | > 7.00 |
| c1cnn(-c2ccc3c(c2)COc2nc(NC4CNC4)ccc2-3)c1 [Compound 166] | 5.00 to 6.00 | < 5.00 | < 5.00 | 5.00 to 6.00 |
| CN(c1ccc2c(n1)OCc1cc(-c3cn[nH]c3)ccc1-2)C1CC(C)(C)NC(C)(C)C1 [Compound 147] | 6.00 to 7.00 | 6.00 to 7.00 | 6.00 to 7.00 | < 5.00 |
| Cc1cnc(-c2ccc3c(c2)COc2nc(N(C)[C@@H]4C[C@H]5CC[C@@H](C4)N5)ccc2-3)o1 [Compound 206] | 6.00 to 7.00 | 6.00 to 7.00 | 6.00 to 7.00 | 6.00 to 7.00 |
| CN(c1ccc2c(n1)OCc1cc(-c3cnn(C)c(=O)c3)ccc1-2)[C@@H]1C[C@H]2CC[C@@H](C1)N2 [Compound 160] | 6.00 to 7.00 | > 7.00 | > 7.00 | > 7.00 |
| COc1cc(-c2ccc3c(c2)COc2nc(N4CCC(N5CCCC5)C4)ccc2-3)cnn1 (stereo not shown) [Compound 305] | 5.00 to 6.00 | 6.00 to 7.00 | 6.00 to 7.00 | 6.00 to 7.00 |
| c1cc2c(cc1-c1cn[nH]c1)COc1nc(O[C@@H]3C[C@H]4CC[C@@H](C3)N4)ccc1-2 [Compound 218] | > 7.00 | 6.00 to 7.00 | > 7.00 | > 7.00 |
| COc1cc(-c2ccc3c(c2)COc2nc(N4CCC(N(C)C5CCC5)C4)ccc2-3)cnn1 (stereo not shown) [Compound 307, N-cyclobutyl-1-[8-(6-methoxypyridazin-4-yl)-6H-isochromeno[3,4-b]pyridin-3-yl]-N-methylpyrrolidin-3-amine] | 6.00 to 7.00 | 6.00 to 7.00 | 6.00 to 7.00 | > 7.00 |
| CN(c1ccc2c(n1)OCc1cc(-c3cn[nH]c3)ccc1-2)C1CCNCC1 [Compound 116] | 5.00 to 6.00 | 5.00 to 6.00 | 6.00 to 7.00 | 6.00 to 7.00 |
| c1cc2c(cc1-c1cn[nH]c1)COc1nc(N[C@@H]3C[C@H]4CC[C@@H](C3)N4)cnc1-2 [Compound 143] | 5.00 to 6.00 | 6.00 to 7.00 | 6.00 to 7.00 | 6.00 to 7.00 |
| COc1cc(-c2ccc3c(c2)COc2nc(N4CCC(NC5(C)CCC5)C4)ccc2-3)cnn1 (stereo not shown) [Compound 285, 1-[8-(6-methoxypyridazin-4-yl)-6H-isochromeno[3,4-b]pyridin-3-yl]-N-(1-methylcyclobutyl)pyrrolidin-3-amine] | 6.00 to 7.00 | 6.00 to 7.00 | > 7.00 | > 7.00 |
| CC1(C)CC(Nc2ccc3c(n2)COc2cc(-n4cccn4)ccc2-3)CC(C)(C)N1 [Compound 134] | 5.00 to 6.00 | 5.00 to 6.00 | 5.00 to 6.00 | 5.00 to 6.00 |
| Cc1[nH]ncc1-c1ccc2c(c1)COc1nc(N(C)[C@@H]3C[C@H]4CC[C@@H](C3)N4)ccc1-2 [Compound 154] | 6.00 to 7.00 | 6.00 to 7.00 | 6.00 to 7.00 | 6.00 to 7.00 |
